Like-named read-outs stand apart in the source and are kept apart here.
How the values were obtained:
[1] = test system: HCV genotype 1b (Con 1 isolate) subgenomic replicon; experiment: microbe, parasite or virus in culture; assay type: cell-based, Hepatitis C virus; details: for improvement in anti-HCV EC50 over compound 2: relative to lead compound 2
Protocol: (§1) Cells. HCV genotype 1b (Con 1 isolate) subgenomic replicon cell line with luciferase reporter (Huh-luc/neo-ET) was kindly provided by Ralf Bartenschlager from the University of Heidelberg (37). Huh-luc/neo-ET cells were cultured in Dulbecco's modified Eagle medium (DMEM , supplemented with 10% fetal bovine serum (FBS), 1 mM nonessential amino acids, and 250 μg/ml of G418 (Invitrogen). Genotype 2a (JFH-I isolate) subgenomic replicon cells YSGR-JFH were cultured in DMEM containing 10 To fetal calf serum, 1 mM nonessential amino acids and 400 μg/ml G418 (31). An additional genotype 1b (Conl) replicon cell line (4291BBix) was cultured in similar media but with 3 μg/ml blasticidin (22).
(§2) Determination of antiviral activities. Ff-luciferase reporter activity was used to monitor the replication of HCV replicons in Huhluc/neo-ET cells free from G418. Replicon cells were seeded at the density of 5×10^3 cells per well in 96-well plates. The following day, replicon cells were incubated in duplicates with DMSO or serially diluted tetraphenylporphyrin (TPP) analogues at 37″C. 72 hrs after co-incubation, cells were lysed with ice-cold passive lysis reagent after PBS wash, and the luciferase activity was measured with the luciferase assay kit (Promega) and Tecan FARCyte luminometer (GE Healthcare) following the manufacturers' descriptions. The relative light units (RLU) were adjusted as percentage readings of the compound-free controls and the 50% effective concentration (EC50) was determined from dose-effect curve by nonlinear regression analysis using Origin 6.1 (OriginLab Software). TPP analogues were also screened in vitro against HIV-I IIIB and HBV as previously described (26,41). Briefly 1×10^3 MT-2 cells per well were exposed in triplets to 0.1TC1D50/cell (50% of the tissue culture infectious dose) of HIV-1 IIIB and cultured in the presence of compounds. The EC50 values were estimated by MTT-based colorimetric quantitation of viral CPE after 5 days. Anti-HBV activities were evaluated in 2.2.15 cells by means of Southern DNA hybridization.

HBV = experiment: Anti-HBV activity in 2.2.15 cells by Southern DNA hybridization; assay type: cell-based; details: read-out: Antiviral Activity EC50 HBV
Protocol: as §2

HIV-1 IIIB = experiment: Anti-HIV activity in MT-2 cells, MTT quantitation of viral CPE; assay type: cell-based; details: read-out: Antiviral Activity EC50 HIV-1 IIIB
Protocol: as §2

MT-2 cells = experiment: Cytotoxicity in uninfected MT-2 cells; assay type: cell-based
Protocol: (§3) Determination of cytotoxicity and mitochondrial DNA toxicity. Exponentially growing Huh-7 cells were seeded at a density of 1×10^4 cells per well in a 24-well plate and incubated with TPP analogues for 3 days. Cells were fixed and stained with 0.5% methylene blue in 50% ethanol followed by extensive washing. After the plates were air dried, cells were solubilized in 1% sarkosyl and cell growth was determined from the extent of absorption by spectrophotometric measurements at 595 nm (Biotek Instruments). For compounds whose dark color interfered with 595-nm reading, cytotoxicity was measured by the CellTiter-Glo luminesecent cell viability assay following manufacturer's description (Promega). Cytotoxicity in MT-2 cells was determined from colorimetric quantitation of uninfected MT-2 cells after 5 days of coincubation.

Huh-7 cells = experiment: Cytotoxicity in Huh-7 cells (methylene blue or CellTiter-Glo); assay type: cell-based
Protocol: as §3

[2] = test system: mitochondrial DNA content of CEM cells; experiment: Mitochondrial DNA toxicity, slot blot of CEM cell lysates; assay type: cell-based; details: read-out: Mitochondrial DNA Toxicity IC50 CEM
Protocol: Quantitation of mitochondrial DNA content was performed as previously published (18). Briefly, CEM cell lysates were spotted onto Hybond paper using the Miliford II slot blot apparatus (Schleicher & Schuell). MTDNA was detected with mtDNA-specific probe and then reprobed with Alu probe for internal control. The autoradiographic bands were quantified on scanning densitometer (Molecular Dynamics).

[3] = test system: HCV genotype 1b (Con1) replicon; experiment: Effect of serum concentration on anti-HCV activity, luciferase assay in Huh-luc/neo-ET cells; assay type: cell-based, Hepatitis C virus; details: for EC50: 72 hrs; for Fold Change in EC50 5% FBS: EC50 at 5% FBS as one fold; for Fold Change in EC50 10% FBS / Fold Change in EC50 20% FBS / Fold Change in EC50 40% FBS: relative to EC50 at 5% FBS
Protocol: Cells were harvested after 72 hrs for luciferase activity assays.
Huh-luc/neo-ET cells were incubated with compound 1, 4 or 6 for 72 hrs and the anti-HCV activity was evaluated by measuring the reduction of reporter luciferase activities.

CEM cells [4] = test system: CEM cells
cytochrome c = cytochrome c (Equus caballus, UniProt P00004); details: read-out: Kd, binding to cyt c; cited from earlier work
Chain of cytochrome c (P00004 2-105 limits assumed): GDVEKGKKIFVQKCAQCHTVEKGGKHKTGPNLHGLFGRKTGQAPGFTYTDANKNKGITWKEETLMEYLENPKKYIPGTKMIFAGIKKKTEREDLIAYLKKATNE

CEM cells [5] = experiment: Cytotoxicity in CEM cells; details: read-out: Cytotoxicity CC50 CEM
[6] = Cytotoxicity in uninfected MT-2 cells; assay type: cell-based; details: human; uninfected MT-2 cells, 5 days
Protocol: as §3

[7] = Cytotoxicity in Huh-7 cells (methylene blue or CellTiter-Glo); assay type: cell-based; details: human; Huh-7 cells, 3 days
Protocol: as §3

[8] = test system: HCV genotype 2a (JFH-1) replicon; experiment: HCV RNA quantification by qRT-PCR in YSGR-JFH cells; assay type: cell-based, Hepatitis C virus; details: Hepatitis C virus, 72 h, read-out: antiviral EC50 against YSGR-JFH replicon cells
Protocol: as §1
Activity of compound 6 against genotype 2a (JFH-I) replicons. In parallel to Huh-luc/neo-ET cells, 1×10^5 YSGR-JFH cells per well were incubated with DMSO control, compound 6, or recombinant human IFNα-2a (Pestka Biomedical Laboratories) in 6-well plates. Cells were harvested after 72 hrs of co-incubation and HCV RNAs were quantitated by qRT-PCR and normalized as described above.

[9] = Cytotoxicity in CEM cells; details: human
[10] = Huh-luc/neo-ET, 72 hrs, luciferase, read-out: Antiviral Activity EC50 HCV

SMILES | EC50 [1, 10] | EC50 (HBV) | EC50 (HIV-1 IIIB; MT-2 cells, 5 days) | CC50 (MT-2 cells) | CC50 (Huh-7 cells) | IC50 ([2]; CEM cells) | CC50 (CEM cells [4]) | other results
O=C(O)c1ccc(-c2ccc(-c3c4nc(c(-c5ccc(-c6ccc(C(=O)O)cc6)cc5)c5ccc([nH]5)c(-c5ccc(-c6ccc(C(=O)O)cc6)cc5)c5nc(c(-c6ccc(-c7ccc(C(=O)O)cc7)cc6)c6ccc3[nH]6)C=C5)C=C4)cc2)cc1 [Compound 4, Tetracarboxybiphenylporphyrin] | 0.877 ± 0.0289 µM | > 10 µM | > 25 µM | > 25 µM | 32.2 ± 4.14 µM | 6 µM | 10 µM | EC50 ([3]; 5% FBS, read-out: EC50 5% FBS): 0.633 ± 0.176 µM; EC50 ([3]; 40% FBS, read-out: EC50 40% FBS): 1.48 ± 0.015 µM; Fold Change in EC50 5% FBS [3]: 1.00; EC50 ([3]; extrapolation of the plot of EC50 vs serum amount, read-out: EC50 0% FBS (Theoretical)): 0.38 µM; EC50 ([3]; read-out: EC50 10% FBS, 10% FBS): 0.877 ± 0.029 µM; EC50 ([3]; read-out: EC50 20% FBS, 20% FBS): 1.21 ± 0.056 µM; Fold Change in EC50 10% FBS [3]: 1.46 ± 0.42; Fold Change in EC50 20% FBS [3]: 2.01 ± 0.52; Fold Change in EC50 40% FBS [3]: 2.48 ± 0.74; Kd (cytochrome c): 17 ± 0.84 µM
O=C(O)c1cccc(-c2ccc(-c3c4nc(c(-c5ccc(-c6cccc(C(=O)O)c6)cc5)c5ccc([nH]5)c(-c5ccc(-c6cccc(C(=O)O)c6)cc5)c5nc(c(-c6ccc(-c7cccc(C(=O)O)c7)cc6)c6ccc3[nH]6)C=C5)C=C4)cc2)c1 [Compound 9] | 0.764 ± 0.06 µM | 8 µM | > 25 µM | > 25 µM | 13 ± 0.7 µM | 22 µM | 50 µM | –
O=C(O)CNC(=O)c1ccc(-c2ccc(-c3c4nc(c(-c5ccc(-c6ccc(C(=O)NCC(=O)O)cc6)cc5)c5ccc([nH]5)c(-c5ccc(-c6ccc(C(=O)NCC(=O)O)cc6)cc5)c5nc(c(-c6ccc(-c7ccc(C(=O)NCC(=O)O)cc7)cc6)c6ccc3[nH]6)C=C5)C=C4)cc2)cc1 [Compound 5] | 0.148 ± 0.006 µM | > 20 µM | 1.5 ± 0.436 µM | 13 ± 4.36 µM | > 50 µM | > 50 µM | > 50 µM | improvement in anti-HCV EC50 over compound 2 [1]: 12 fold
O=C(O)c1cc(C(=O)O)cc(-c2c3nc(c(-c4cc(C(=O)O)cc(C(=O)O)c4)c4ccc([nH]4)c(-c4cc(C(=O)O)cc(C(=O)O)c4)c4nc(c(-c5cc(C(=O)O)cc(C(=O)O)c5)c5ccc2[nH]5)C=C4)C=C3)c1 [Compound 3] | 13.6 ± 1.1 µM | 7 µM | > 100 µM | 22 µM | > 50 µM | 25 µM | > 50 µM | –
O=C(O)CNC(=O)c1ccc(-c2c3nc(c(-c4ccc(C(=O)NCC(=O)O)cc4)c4ccc([nH]4)c(-c4ccc(C(=O)NCC(=O)O)cc4)c4nc(c(-c5ccc(C(=O)NCC(=O)O)cc5)c5ccc2[nH]5)C=C4)C=C3)cc1 [Compound 2] | 1.8 ± 0.7 µM | > 10 µM | > 25 µM | – | – | 15 ± 3.7 µM | – | CC50 (MT-2 cells; uninfected MT-2 cells, 5 days, read-out: Cytotoxicity CC50 MT-2): 3.2 ± 1.13 µM; CC50 (Huh-7 cells; Huh-7 cells, 3 days, read-out: Cytotoxicity CC50 Huh-7): > 50 µM; CC50 (CEM cells [5]): 27 ± 15.1 µM
O=C(O)c1ccc(-c2c3nc(c(-c4ccc(C(=O)O)cc4)c4ccc([nH]4)c(-c4ccc(C(=O)O)cc4)c4nc(c(-c5ccc(C(=O)O)cc5)c5ccc2[nH]5)C=C4)C=C3)cc1 [Compound 1, Meso-Tetra(4-carboxyphenyl)porphine] | – | – | – | – | – | – | – | EC50 ([1]; Hepatitis C virus, Huh-luc/neo-ET, 72 hrs, luciferase, read-out: Antiviral Activity EC50 HCV): 0.243 ± 0.0359 µM; improvement in anti-HCV EC50 over compound 2 [1]: Over 7 fold; EC50 (HBV; Hepatitis B virus): > 10 µM; EC50 (HIV-1 IIIB; Human immunodeficiency virus 1, IIIB, MT2, 120 h): > 25 µM; CC50 at 5 days [6]: > 25 µM; CC50 at 3 days [7]: > 50 µM; IC50 ([2]; Homo sapiens, CCRF-CEM): > 50 µM; Fold Change in EC50 5% FBS [3]: 1.00; EC50 ([3]; Hepatitis C virus, Huh-luc/neo-ET, read-out: EC50 10% FBS, 10% FBS): 0.243 ± 0.036 µM; EC50 ([3]; Hepatitis C virus, Huh-luc/neo-ET, read-out: EC50 20% FBS, 20% FBS): 0.513 ± 0.069 µM; EC50 ([3]; Hepatitis C virus, Huh-luc/neo-ET, 5% FBS, read-out: EC50 5% FBS): 0.124 ± 0.008 µM; EC50 ([3]; Hepatitis C virus, Huh-luc/neo-ET, 40% FBS, read-out: EC50 40% FBS): 0.948 ± 0.089 µM; EC50 ([3]; Hepatitis C virus, Huh-luc/neo-ET, extrapolation of the plot of EC50 vs serum amount, read-out: EC50 0% FBS (Theoretical)): 0.0482 µM; Fold Change in EC50 10% FBS [3]: 1.95 ± 0.16; Fold Change in EC50 20% FBS [3]: 4.16 ± 0.82; Fold Change in EC50 40% FBS [3]: 7.62 ± 0.46; EC50 [8]: 1.9 µM; Kd (cytochrome c): 0.95 ± 0.25 µM; CC50 [9]: 34 µM
C[N+](C)(C)c1ccc(-c2c3nc(c(-c4ccc([N+](C)(C)C)cc4)c4ccc([nH]4)c(-c4ccc([N+](C)(C)C)cc4)c4nc(c(-c5ccc([N+](C)(C)C)cc5)c5ccc2[nH]5)C=C4)C=C3)cc1 [TTMAPP, 5,10,I5,20-Tetrakis (4(trimethylammonio)-phenyl)-21H,23H-porphine, reference compound] | – | – | – | – | – | – | – | EC50 ([1]; HCV replicons in vitro, read-out: anti-HCV EC50): 3.58 µM
O=C(O)CNC(=O)c1cc(C(=O)NCC(=O)O)cc(-c2ccc(-c3c4nc(c(-c5ccc(-c6cc(C(=O)NCC(=O)O)cc(C(=O)NCC(=O)O)c6)cc5)c5ccc([nH]5)c(-c5ccc(-c6cc(C(=O)NCC(=O)O)cc(C(=O)NCC(=O)O)c6)cc5)c5nc(c(-c6ccc(-c7cc(C(=O)NCC(=O)O)cc(C(=O)NCC(=O)O)c7)cc6)c6ccc3[nH]6)C=C5)C=C4)cc2)c1 [Compound 7] | > 12.5 µM | > 10 µM | 1.05 ± 0.071 µM | 15 ± 4.24 µM | 12.5 µM | 12.5 µM | > 50 µM | –

Source: patent publication US20110064694A1, “ANTI-HEPATITIS C ACTIVITY OF MESO-TETRAKIS-PORPHYRIN ANALOGUES” (YALE UNIVERSITY, priority 2009, published 2011)
